Among the test systems are ACHN renal; RXF 393 renal; SK-MEL-5 melanoma; NCI-H460 lung; NCI-H522 lung; SK-MEL-28 melanoma; SNB-19 CNS; HCT-15 colon; MOLT-4 leukemia.
What all share (assay): inhibition of tumour cell growth, NCI panel, 48 h

Values joined by “and” are separate entries in the source; they are usually repeats but may differ in a detail not shown here. Equal values may be shown once.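 All cell lines were grown in 96-well plates and treated with compound for 48 hours. GI50 = concentration required for 50% inhibition of growth. TGI marks complete inhibition of growth.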 Where only a bound is given, the exact number is not on record here.

Consider `O=C1C(Cl)=C(Cl)C(=O)N1C1C2CC3CC(C2)CC1C3` (configuration not stated), for which the TGI in the assay on ACHN renal is over 100 µM; in the assay with RXF 393 renal it was over 100 µM; with SK-MEL-5 melanoma, over 100 µM; in the assay on NCI-H460 lung it was over 100 µM; in the assay with NCI-H522 lung, over 64.5 µM; in the assay with SK-MEL-28 melanoma it was over 100 µM. In addition, the TGI in the assay on SNB-19 CNS was over 100 µM; in the assay with HCT-15 colon, over 100 µM; with MOLT-4 leukemia it was over 83.3 µM.

`C/C(O)=C(\N=O)C(=O)NCCc1ccccc1`: the TGI in the assay on ACHN renal is over 100 µM; in the assay with RXF 393 renal it was over 100 µM; with SK-MEL-5 melanoma it was over 100 µM; in the assay with NCI-H460 lung it was over 58.4 µM; in the assay on NCI-H522 lung, over 100 µM; with SK-MEL-28 melanoma, over 100 µM. The results for the TGI in the assay with SNB-19 CNS, in the assay on HCT-15 colon and with MOLT-4 leukemia were over 100 µM, over 55.9 µM and over 100 µM, respectively.

Take `CCOc1ccc(N=Cc2cccc3cccnc23)cc1`: the TGI with ACHN renal, in the assay on RXF 393 renal, in the assay with SK-MEL-5 melanoma, with NCI-H460 lung, with SK-MEL-28 melanoma and in the assay on SNB-19 CNS was over 100 µM throughout. For the same molecule, the TGI in the assay with HCT-15 colon and in the assay on MOLT-4 leukemia was over 100 µM throughout.

Take `CC(CN(CP(=O)([O-])[O-])CP(=O)([O-])[O-])N(CP(=O)([O-])[O-])CP(=O)([O-])[O-].N.N.[Pt+2]` (configuration not stated): the GI50 with ACHN renal, with RXF 393 renal, in the assay on SK-MEL-5 melanoma, in the assay with NCI-H460 lung, in the assay with NCI-H522 lung and in the assay with SK-MEL-28 melanoma was over 100 µM in each case. Also, the GI50 in the assay on SNB-19 CNS, with HCT-15 colon and in the assay on MOLT-4 leukemia was over 100 µM in each case. The TGI in the assay with ACHN renal, in the assay with RXF 393 renal, with SK-MEL-5 melanoma, in the assay with NCI-H460 lung, in the assay with NCI-H522 lung and in the assay with SK-MEL-28 melanoma was over 100 µM throughout. Also, the TGI in the assay on SNB-19 CNS, in the assay with HCT-15 colon and with MOLT-4 leukemia was over 100 µM in each case.

On to `CC1OC(n2ncc(=O)[nH]c2=O)C=CC1=O` (configuration not stated), for which the TGI with ACHN renal is over 100 µM; with NCI-H460 lung it was over 100 µM; in the assay with NCI-H522 lung, 37.6 µM and 36.2 µM; in the assay on SK-MEL-28 melanoma it was 93.8 µM and 46 µM; with SNB-19 CNS, over 100 µM; in the assay on HCT-15 colon it was over 100 µM. In the assay with MOLT-4 leukemia, this molecule came in with a TGI of over 100 µM. Also, the GI50 in the assay with SNB-19 CNS is > 100 µM and 35.1 µM; in the assay on HCT-15 colon it was 90.5 µM and 34.6 µM; with MOLT-4 leukemia, 81.1 µM and 30.2 µM.

In the case of `COc1ccc(C=C2C(=O)OC(C)(C)OC2=O)cc1OC`, the TGI with ACHN renal, in the assay with SK-MEL-5 melanoma, with NCI-H460 lung, in the assay on NCI-H522 lung, in the assay on SK-MEL-28 melanoma and with SNB-19 CNS was over 100 µM throughout. For the same molecule, the TGI in the assay with HCT-15 colon and in the assay with MOLT-4 leukemia was over 100 µM in each case.

In the case of `O=C1NC(=S)NC(=O)C1=Cc1cc2c(cc1[N+](=O)[O-])OCO2`, the TGI with ACHN renal, with RXF 393 renal, in the assay on SK-MEL-5 melanoma, with NCI-H460 lung, with NCI-H522 lung and in the assay on SK-MEL-28 melanoma was over 100 µM in each case. The TGI with SNB-19 CNS, with HCT-15 colon and with MOLT-4 leukemia was over 100 µM throughout.

In the case of `[N-]=[N+]=NC(c1cn(C2CC(O)C(CO)O2)c(=O)[nH]c1=O)C(Br)I` (configuration not stated), the TGI in the assay on ACHN renal, in the assay with RXF 393 renal, with SK-MEL-5 melanoma, with NCI-H460 lung, in the assay with NCI-H522 lung and in the assay on SK-MEL-28 melanoma was over 100 µM throughout. In addition, the TGI with SNB-19 CNS, with HCT-15 colon and in the assay on MOLT-4 leukemia was over 100 µM throughout.

Turning to `O=C1C=C[C@@]23CC1C(O)C[C@H]2C=Cc1ccccc13` (some centres not stated), the TGI in the assay with ACHN renal, in the assay with SK-MEL-5 melanoma, with NCI-H460 lung, with NCI-H522 lung, in the assay with SNB-19 CNS and with HCT-15 colon was over 100 µM in each case. The TGI in the assay with MOLT-4 leukemia was over 100 µM.

As to `Cc1cccc(C(C)(C)C)c1NC(=O)C(=O)C(C(=O)/C=C\c1ccccc1)C1OC(=O)c2ccccc21` (configuration not stated), the TGI in the assay with ACHN renal, in the assay on RXF 393 renal, in the assay on SK-MEL-5 melanoma, in the assay on NCI-H460 lung, with NCI-H522 lung and in the assay on SK-MEL-28 melanoma was over 100 µM each time. Also, the TGI with SNB-19 CNS, in the assay with HCT-15 colon and in the assay with MOLT-4 leukemia was over 100 µM in each case.

Consider `CCCCCCCCCCC/C(=N/O)c1ccc(O)c2ncccc12`, for which the TGI is 6.14 µM in the assay on ACHN renal; 27.6 µM with RXF 393 renal; 4.18 µM in the assay on SK-MEL-5 melanoma; 17 µM in the assay on NCI-H460 lung; 6.57 µM with NCI-H522 lung; over 100 µM with SK-MEL-28 melanoma. In addition, the TGI with SNB-19 CNS was over 100 µM.

Consider `CCN1C2=NC(=O)N(C)C(=O)C2(Cl)C(C(SC)S(=O)(=O)c2ccc(C)cc2)c2ccccc21` (configuration not stated), for which the TGI in the assay with SK-MEL-5 melanoma is over 100 µM; in the assay with NCI-H460 lung, over 100 µM; in the assay on NCI-H522 lung, 25.9 µM; with SK-MEL-28 melanoma it was 67.9 µM; in the assay with SNB-19 CNS, over 100 µM; with MOLT-4 leukemia, 13.3 µM.

For `CCOC(=O)CC(=O)Sc1ccccc1`, the TGI with ACHN renal was found to be 65.7 µM; in the assay with RXF 393 renal, 25.9 µM; in the assay on SK-MEL-5 melanoma, 58.5 µM; in the assay with NCI-H460 lung it was 73.8 µM; with NCI-H522 lung, 24.3 µM; in the assay on SK-MEL-28 melanoma, 35 µM. For the same molecule, the TGI is over 100 µM in the assay with SNB-19 CNS and 72.6 µM in the assay with MOLT-4 leukemia.

Turning to `Cc1ccccc1-c1c(N)nc(NC#N)nc1C(=O)Nc1ccccc1`, the TGI in the assay on ACHN renal, with RXF 393 renal, with SK-MEL-5 melanoma, in the assay with NCI-H460 lung, with SK-MEL-28 melanoma and with SNB-19 CNS was over 100 µM in each case. Also, the TGI with HCT-15 colon and in the assay with MOLT-4 leukemia was over 100 µM in each case.

Turning to `COC(=O)C1=C(C)N(NC(N)=O)C2(N)N(NC(N)=O)C(C)=C(C(=O)OC)C12C(=O)OC` (configuration not stated), the TGI with ACHN renal, with NCI-H460 lung, in the assay on NCI-H522 lung, in the assay with SK-MEL-28 melanoma, with SNB-19 CNS and in the assay on HCT-15 colon was over 100 µM in each case. The same molecule showed a TGI in the assay on MOLT-4 leukemia of over 100 µM.

Source of the values: PubChem BioAssay (NCI).
